Source: patent US9265749B2, “Methods for the treatment of systemic disorders treatable with mast cell stabilizers, including mast cell related disorders” (Patara Pharma, LLC, priority 2014, dated 2016)

Test: Single-dose, dose escalation study Part 1: pharmacokinetics of plasma/urine cromolyn sodium (DSCG)
Format: in vivo
Conditions: human, plasma, inhaled, 40 mg
Method: This was a Phase 1, randomized, open-label, single-centre, dose-ranging, cross-over study conducted in two parts in total of 18 subjects. Part 1 was conducted in total of 12 healthy adult subjects of 18-45 years of age. Part 2 was conducted in a total of 5 adult patients of 18-45 years of age with systemic mastocytosis. Parts 1 and 2 were conducted in parallel.
40 mg PA-101 (4% DSCG, 40 mg/1 mL), oral inhalation via eFlow 30L. • 2. 80 mg PA-101 (4% DSCG, 80 mg/2 mL), oral inhalation via eFlow 30L. • 3. 40 mg PA-101 (4% DSCG, 40 mg/1 mL), oral inhalation via eFlow 40L. • 4. […] 200 mg oral sodium cromoglycate solution (commercially available product), oral administration. […] 40 mg PA-101 (4% DSCG 40 mg/1 mL), oral inhalation via eFlow 30L • 2. 200 mg oral sodium cromoglycate solution (commercially available product), oral administration. […]
Urine DSCG levels were measured for total DSCG excretion in the urine, and the bioavailability of the DSCG was calculated from the measured levels.
Pharmacokinetic parameters and plasma concentrations are listed and summarized. […] Analysis of variance (ANOVA) including terms for subject and treatment are used to calculate point estimates, and confidence intervals (CI) for treatment differences with respect to PK parameters (90% CI) are calculated.

Question: What does the source list for `O=C(O)c1cc(=O)c2c(OCC(O)COc3cccc4oc(C(=O)O)cc(=O)c34)cccc2o1` [cromolyn sodium]?
Answer: AUC (40 mg dose using the 30L device (text repeat of Table 2, PA-101)): 338 ng·h/mL; AUC (40 mg dose using the 40L device (text repeat of Table 2, PA-101)): 212 ng·h/mL
